Measured values: patent US20230098254A1, “SCUTELLARIAE RADIX COMPOUNDS AND USE THEREOF FOR INHIBITING OXIDATIVE PHOSPHORYLATION PATHWAY OF MITOCHONDRIA” (priority 2020, published 2023)

Legend:
MIA PaCa-2 = test: Cell viability CellTiter-Glo, MIA PaCa-2; type: cell-based; details: Homo sapiens; MIA PaCa-2, pancreatic cancer
Protocol: (§1) Cell viability was measured by using the Promega CellTiter-Glo kit, the kit reflected cell viability by directly measuring intracellular ATP content. Different cancer cells were cultured in culture medium, and the 50% inhibitory concentration IC50 of the compound SJ2858 was measured by Promega CellTiter-Glo kit. The name source and culture condition of each tumor cell line were as follows:
Cell line MIA PaCa-2 (ATCC, No. CRL-1420) was cultured in DMEM medium containing 10% fetal bovine serum (+P/S);

NCI-H 1793 = test: Cell viability CellTiter-Glo, NCI-H 1793; type: cell-based; details: Homo sapiens, NCI-H1793; NCI-H 1793, lung cancer
Protocol: as §1
Cell line NCI-H1793 (ATCC, No. CRL-5896) was cultured in HITES medium containing 5% fetal bovine serum (+P/S);

O=c1cc(-c2ccccc2)oc2cc(O)c(O)c(O)c12 [Compound SJ2858, baicalein] gave an IC50 (MIA PaCa-2) of 19.7 µM and an IC50 (NCI-H 1793) of 35.2 µM.
